Molecules are shown by their SMILES.

One test has as its target P2X7 (Homo sapiens (Human), UniProt Q99572). Description: P2X7 antagonism in human PBMCs (IL-1β release, ELISA). As to conditions: test compound 10 μM, IL-1β release in human PBMCs, LPS 30 ng/ml + Bz-ATP 0.5 mM, read-out: PBMC 10 μM (% control). It is filed as cell-based. The protocol: Human blood was collected using a blood donor program. […] Cells were incubated for an additional 1.5 hours. […] In Table 2, when the data cell has been left blank, it is intended to mean that the compound was not tested in that assay.
(In general: An ELISA detects its analyte on a solid surface through an enzyme-linked reagent.)

The next test deals with rat P2X7 (Rattus norvegicus (Rat), UniProt Q64663). Description: Ca2+ flux (FLIPR) in 1321N1 cells expressing recombinant rat P2X7 channel. It is filed as cell-based. As to conditions: 250 μM BzATP, Calcium-4 dye. The protocol: 1321N1 cells expressing the recombinant human, rat or mouse P2X7 channel was cultured in HyQ DME/(HyClone/Dulbecco's Modified Eagle Medium) high glucose supplemented with 10% Fetal Bovine Serum (FBS) and appropriate selection marker. Cells were seeded at a density of 25000 cells/well (96-well clear bottom black walled plates) in 100 μl volume/well. On the day of the experiment, cell plates were washed with assay buffer, containing (in mM): 130 NaCl, 2 KCl, 1 CaCl2, 1 MgCl2, 10 HEPES, 5 glucose; pH 7.40 and 300 mOs. After the wash, cells were loaded with the Calcium-4 dye (Molecular Device) and incubated in the dark for 60 minutes. Test compounds were prepared at 250× the test concentration in neat DMSO. Intermediate 96-well compound plates were prepared by transferring 1.2 μL of the compound into 300 μL of assay buffer. A further 3× dilution occurred when transferring 50 μL/well of the compound plate to 100 μL/well in the cell plate. Cells were incubated with test compounds and dye for 30 minutes. […] The fluorescence change was measured 180 seconds after adding the agonist.
Chain of rat P2X7 (Q64663 whole entry): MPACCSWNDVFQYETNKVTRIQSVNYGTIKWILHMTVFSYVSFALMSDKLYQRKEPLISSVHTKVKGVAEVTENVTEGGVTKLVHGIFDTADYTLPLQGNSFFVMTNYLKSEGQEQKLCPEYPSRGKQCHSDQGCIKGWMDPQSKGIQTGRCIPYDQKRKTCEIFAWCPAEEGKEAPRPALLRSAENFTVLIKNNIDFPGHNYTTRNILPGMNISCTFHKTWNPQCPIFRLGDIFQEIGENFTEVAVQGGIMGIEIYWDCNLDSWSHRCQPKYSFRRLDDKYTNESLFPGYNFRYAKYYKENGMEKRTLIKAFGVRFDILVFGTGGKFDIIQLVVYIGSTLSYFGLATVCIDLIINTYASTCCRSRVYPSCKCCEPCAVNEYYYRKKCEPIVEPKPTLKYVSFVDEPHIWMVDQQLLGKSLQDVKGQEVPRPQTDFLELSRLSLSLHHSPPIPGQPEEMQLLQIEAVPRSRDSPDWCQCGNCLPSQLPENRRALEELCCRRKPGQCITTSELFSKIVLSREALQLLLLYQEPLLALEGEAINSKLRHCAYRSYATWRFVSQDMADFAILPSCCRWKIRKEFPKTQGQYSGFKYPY

Chain of P2X7 (Q99572 whole entry): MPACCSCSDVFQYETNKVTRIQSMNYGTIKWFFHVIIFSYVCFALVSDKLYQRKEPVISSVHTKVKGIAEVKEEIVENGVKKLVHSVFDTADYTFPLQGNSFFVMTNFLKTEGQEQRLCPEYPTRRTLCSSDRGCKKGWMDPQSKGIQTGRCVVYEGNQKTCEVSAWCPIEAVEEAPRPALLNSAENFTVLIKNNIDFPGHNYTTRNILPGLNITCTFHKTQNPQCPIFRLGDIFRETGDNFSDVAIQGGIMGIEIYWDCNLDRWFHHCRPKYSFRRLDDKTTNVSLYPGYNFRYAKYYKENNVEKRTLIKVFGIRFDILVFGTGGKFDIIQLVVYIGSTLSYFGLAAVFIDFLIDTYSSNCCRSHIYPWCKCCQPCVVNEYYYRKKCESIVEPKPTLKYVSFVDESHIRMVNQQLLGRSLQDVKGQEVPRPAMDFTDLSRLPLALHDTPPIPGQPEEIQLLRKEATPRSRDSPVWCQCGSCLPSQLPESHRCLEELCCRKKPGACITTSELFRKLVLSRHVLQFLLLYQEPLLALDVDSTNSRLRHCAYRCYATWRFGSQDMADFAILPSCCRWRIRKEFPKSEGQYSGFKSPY

As for `Cc1nc2c(c(-c3ccn[nH]3)n1)CC(C)N(C(=O)c1ccc(F)c(Cl)c1Cl)C2` (stereo not drawn) [Example 80, (2,3-dichloro-4-fluorophenyl)(2,6-dimethyl-4-(1H-pyrazol-5-yl)-5,6-dihydropyrido[3,4-d]pyrimidin-7(8H)-yl)methanone], the remaining activity at 10 µM at P2X7 is 18.4%.

`Cc1cccc(C(=O)N2CCc3c(ncnc3-c3ccccn3)C2)c1Cl` [Example 13, 7-[(2-Chloro-3-methylphenyl)carbonyl]-4-pyridin-2-yl-5,6,7,8-tetrahydropyrido[3,4-d]pyrimidine]: on P2X7, the remaining activity at 10 µM was 13.4%.

For the compound `Cc1nc2c(c(-c3c(C)noc3C)n1)CCN(C(=O)c1cccc(C(F)(F)F)c1Cl)C2` [Example 46, 7-{[2-Chloro-3-(trifluoromethyl)phenyl]carbonyl}-4-(3,5-dimethylisoxazol-4-yl)-2-methyl-5,6,7,8-tetrahydropyrido[3,4-d]pyrimidine], on P2X7, the remaining activity at 10 µM was 100%.

As for `Cc1nc2c(c(-c3ccn[nH]3)n1)C[C@@H](C)N(C(=O)c1ccc(F)cc1Cl)C2` (single isomer, unassigned) [Example 91, (R*)-(2-chloro-4-fluorophenyl)(2,6-dimethyl-4-(1H-pyrazol-5-yl)-5,6-dihydropyrido[3,4-d]pyrimidin-7(8H)-yl)methanone], on rat P2X7, the 50% inhibitory concentration (IC50) came to 132 nM.

`Cc1cccc(C(=O)N2CCc3c(ncnc3-c3ccn[nH]3)C2)c1C` [Example 9, 7-[(2,3-Dimethylphenyl)carbonyl]-4-(1H-pyrazol-5-yl)-5,6,7,8-tetrahydropyrido[3,4-d]pyrimidine]: on P2X7, the remaining activity at 10 µM stood at 9.8%.

In the case of `C[C@H]1c2ncnc(-c3ccn[nH]3)c2CCN1C(=O)c1ccc(F)c(Cl)c1Cl` (single isomer, unassigned) [Example 120, (S*)-(2,3-dichloro-4-fluorophenyl)(8-methyl-4-(1H-pyrazol-5-yl)-5,6-dihydropyrido[3,4-d]pyrimidin-7(8H)-yl)methanone], on rat P2X7, the IC50 is 1510 nM.

In the case of `Cc1nc2c(c(-c3ccn[nH]3)n1)CC(C)N(C(=O)c1cccc(C(F)(F)F)c1F)C2` (stereo not drawn) [Example 74, (2,6-dimethyl-4-(1H-pyrazol-5-yl)-5,6-dihydropyrido[3,4-d]pyrimidin-7(8H)-yl)(2-fluoro-3-(trifluoromethyl)phenyl)methanone], the remaining activity at 10 µM at P2X7 was determined as 22.5%.

On to `Cc1cccc(C(=O)N2CCc3c(ncnc3-c3ccn[nH]3)C2)c1Cl` [Example 8, 7-[(2-Chloro-3-methylphenyl)carbonyl]-4-(1H-pyrazol-5-yl)-5,6,7,8-tetrahydropyrido[3,4-d]pyrimidine], for which the IC50 at rat P2X7 is over 10000 nM.

On to `Cc1nc2c(c(-n3nccn3)n1)CCN(C(=O)c1cccc(C(F)(F)F)c1Cl)C2` [Example 47, 7-{[2-Chloro-3-(trifluoromethyl)phenyl]carbonyl}-2-methyl-4-(2H-1,2,3-triazol-2-yl)-5,6,7,8-tetrahydropyrido[3,4-d]pyrimidine], for which the IC50 on rat P2X7 came to 7.9 nM.

For the compound `CCc1nc2c(c(-c3ccn[nH]3)n1)CC(C)N(C(=O)c1cccc(C(F)(F)F)c1Cl)C2` (stereo not drawn) [Example 98, (2-chloro-3-(trifluoromethyl)phenyl)(2-ethyl-6-methyl-4-(1H-pyrazol-5-yl)-5,6-dihydropyrido[3,4-d]pyrimidin-7(8H)-yl)methanone], the remaining activity at 10 µM at P2X7 came to 13.2%.

As for `Cc1nc2c(c(-c3[nH]ncc3C(F)(F)F)n1)CCN(C(=O)c1cccc(Cl)c1Cl)C2` [Example 40, 7-[(2,3-Dichlorophenyl)carbonyl]-2-methyl-4-[4-(trifluoromethyl)-1H-pyrazol-5-yl]-5,6,7,8-tetrahydropyrido[3,4-d]pyrimidine], the remaining activity at 10 µM at P2X7 worked out at 12.9%.

As to `Cc1nc2c(c(-c3ccn[nH]3)n1)CC(C)N(C(=O)c1ccc(F)c(C(F)(F)F)c1Cl)C2` (stereo not drawn) [Example 64, (2-chloro-4-fluoro-3-(trifluoromethyl)phenyl)(2,6-dimethyl-4-(1H-pyrazol-5-yl)-5,6-dihydropyrido[3,4-d]pyrimidin-7(8H)-yl)methanone], the remaining activity at 10 µM on P2X7 is -2.1%.

Regarding `Cc1nc2c(c(-c3ccn[nH]3)n1)CC(C)N(C(=O)c1ccc(Cl)c(F)c1Cl)C2` (stereo not drawn) [Example 70, (2,4-dichloro-3-fluorophenyl)(2,6-dimethyl-4-(1H-pyrazol-5-yl)-5,6-dihydropyrido[3,4-d]pyrimidin-7(8H)-yl)methanone], at P2X7, the remaining activity at 10 µM is -2.7%.

Take `CC1c2ncnc(-c3ccn[nH]3)c2CCN1C(=O)c1ccc(Cl)c(F)c1Cl` (stereo not drawn) [Example 121]: the remaining activity at 10 µM at P2X7 was 0.7%.

Regarding `CN(C)c1nc2c(c(-c3ccccc3)n1)CCN(C(=O)c1cccc(C(F)(F)F)c1Cl)C2` [Example 26, 7-{[2-Chloro-3-(trifluoromethyl)phenyl]carbonyl}-N,N-dimethyl-4-phenyl-5,6,7,8-tetrahydropyrido[3,4-d]pyrimidin-2-amine], the remaining activity at 10 µM at P2X7 is 16.1%.

As for `Cc1nc2c(c(-c3ccn(CCF)n3)n1)C[C@H](C)N(C(=O)c1cccc(C(F)(F)F)c1Cl)C2` (single isomer, unassigned) [Example 125, (S*)-(2-chloro-3-(trifluoromethyl)phenyl)(4-(1-(2-fluoroethyl)-1H-pyrazol-3-yl)-2,6-dimethyl-5,6-dihydropyrido[3,4-d]pyrimidin-7(8H)-yl)methanone], the remaining activity at 10 µM on P2X7 came to 64.7%.

For the compound `O=C(c1cccc(C(F)(F)F)c1Cl)N1CCc2c(ncnc2-c2ccnn2C2CCCCO2)C1` (stereo not drawn) [Example 17, 7-{[2-Chloro-3-(trifluoromethyl)phenyl]carbonyl}-4-[1-(tetrahydro-2H-pyran-2-yl)-1H-pyrazol-5-yl]-5,6,7,8-tetrahydropyrido[3,4-d]pyrimidine], the remaining activity at 10 µM at P2X7 was determined as 9.9%.

On to `CN(C)c1nc2c(c(-c3ccccc3)n1)CCN(C(=O)c1cccc(Cl)c1Cl)C2` [Example 25, 7-[(2,3-Dichlorophenyl)carbonyl]-N,N-dimethyl-4-phenyl-5,6,7,8-tetrahydropyrido[3,4-d]pyrimidin-2-amine], for which the remaining activity at 10 µM on P2X7 came out at 10.8%.

`Cc1nc2c(c(-c3ccn[nH]3)n1)CCN(C(=O)c1cccc(C(F)(F)F)c1C)C2` [Example 52, 2-Methyl-7-{[2-methyl-3-(trifluoromethyl)phenyl]carbonyl}-4-(1H-pyrazol-5-yl)-5,6,7,8-tetrahydropyrido[3,4-d]pyrimidine]: the remaining activity at 10 µM on P2X7 stood at 9.3%.

As to `Cc1nc2c(c(-c3ccn[nH]3)n1)CC(C)N(C(=O)c1ccc(Cl)cc1Cl)C2` (stereo not drawn) [Example 83, (2,4-dichlorophenyl)(2,6-dimethyl-4-(1H-pyrazol-5-yl)-5,6-dihydropyrido[3,4-d]pyrimidin-7(8H)-yl)methanone], the remaining activity at 10 µM on P2X7 came to 2.7%.

Take `C[C@@H]1c2ncnc(-c3ccn[nH]3)c2CCN1C(=O)c1cccc(C(F)(F)F)c1Cl` (single isomer, unassigned) [Example 113, (R*)-(2-chloro-3-(trifluoromethyl)phenyl)(8-methyl-4-(1H-pyrazol-5-yl)-5,6-dihydropyrido[3,4-d]pyrimidin-7(8H)-yl)methanone]: on rat P2X7, the IC50 came to 9.1 nM.

`Cc1nc2c(c(-c3ccn[nH]3)n1)C[C@@H](C)N(C(=O)c1cccc(Cl)c1Cl)C2` (single isomer, unassigned) [Example 68, (R*)-(2,3-dichlorophenyl)(2,6-dimethyl-4-(1H-pyrazol-5-yl)-5,6-dihydropyrido[3,4-d]pyrimidin-7(8H)-yl)methanone]: the IC50 on rat P2X7 was 8.8 nM.

In the case of `CC1c2ncnc(-c3ccn[nH]3)c2CCN1C(=O)c1ccc(F)c(C(F)(F)F)c1Cl` (stereo not drawn) [Example 115, (2-chloro-4-fluoro-3-(trifluoromethyl)phenyl)(8-methyl-4-(1H-pyrazol-5-yl)-5,6-dihydropyrido[3,4-d]pyrimidin-7(8H)-yl)methanone], the remaining activity at 10 µM on P2X7 is -3.1%.

Consider `C[C@@H]1c2ncnc(-c3ccn[nH]3)c2CCN1C(=O)c1ccc(F)c(Cl)c1Cl` (single isomer, unassigned) [Example 119, (R*)-(2,3-dichloro-4-fluorophenyl)(8-methyl-4-(1H-pyrazol-5-yl)-5,6-dihydropyrido[3,4-d]pyrimidin-7(8H)-yl)methanone], for which, at rat P2X7, the half-maximal inhibitory concentration (IC50) was 28.4 nM.

For `C[C@H]1c2ncnc(-c3ccn[nH]3)c2CCN1C(=O)c1cccc(C(F)(F)F)c1Cl` (single isomer, unassigned) [Example 114, (S*)-(2-chloro-3-(trifluoromethyl)phenyl)(8-methyl-4-(1H-pyrazol-5-yl)-5,6-dihydropyrido[3,4-d]pyrimidin-7(8H)-yl)methanone], the IC50 at rat P2X7 came to 166 nM.

In the case of `Cc1nc2c(c(-c3ccn[nH]3)n1)C[C@H](C)N(C(=O)c1cccc(Cl)c1Cl)C2` (single isomer, unassigned) [Example 69, (S*)-(2,3-dichlorophenyl)(2,6-dimethyl-4-(1H-pyrazol-5-yl)-5,6-dihydropyrido[3,4-d]pyrimidin-7(8H)-yl)methanone], the half-inhibitory concentration (IC50) on rat P2X7 stood at 938 nM.

Turning to `Cc1nc2c(c(-c3ccn[nH]3)n1)C[C@H](C)N(C(=O)c1ccc(F)cc1Cl)C2` (single isomer, unassigned) [Example 92, (S*)-(2-chloro-4-fluorophenyl)(2,6-dimethyl-4-(1H-pyrazol-5-yl)-5,6-dihydropyrido[3,4-d]pyrimidin-7(8H)-yl)methanone], the half-inhibitory concentration (IC50) at rat P2X7 was 5960 nM.

For orientation: IC50 means the concentration needed to halve the response being measured.
